This note sets out measurements from patent US20030186939A1, “Omega-cycloalkyl-prostaglandin E2 derivatives” (priority 1997, published 2003).

Conditions in all cases: competition of 2.5 nM 3H-PGE2 binding, CHO cell membrane fraction; more polar compounds
In one test the target is T1, mouse EP1 (Mus musculus, UniProt P35375).
T1 construct: expressed in transfected cells; host or cells: CHO cells (membrane fraction)
T1 sequence (P35375 1-405): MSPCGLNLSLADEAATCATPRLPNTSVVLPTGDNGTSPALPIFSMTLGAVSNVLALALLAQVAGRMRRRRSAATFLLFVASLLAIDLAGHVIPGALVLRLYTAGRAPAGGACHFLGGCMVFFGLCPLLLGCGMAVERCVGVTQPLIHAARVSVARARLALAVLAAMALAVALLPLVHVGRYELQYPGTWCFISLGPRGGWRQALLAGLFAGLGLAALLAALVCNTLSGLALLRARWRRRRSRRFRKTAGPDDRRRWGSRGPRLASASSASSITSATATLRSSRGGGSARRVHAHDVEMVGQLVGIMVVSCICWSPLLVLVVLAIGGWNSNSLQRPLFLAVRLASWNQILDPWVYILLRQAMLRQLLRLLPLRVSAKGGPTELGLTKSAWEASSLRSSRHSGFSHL
The test is described as follows: Binding assay using expression cell of prostanoide receptor subtype (EP1). The procedure:
(§1) The preparation of membrane fraction was carried out according to the method of Sugimoto et. al. [J. Biol. Chem. 267, 6463-6466 (1992)], using expression CHO cell of the prostanoide receptor subtype (mouse EP1, EP2, EP3α, EP4).
(§2) The standard assay mixture contained membrane fraction (0.5 mg/ml), and [^3H]-PGE2 in a final volume of 200 μl was incubated for 1 hour at room temperature. The reaction was terminated by the addition of 3 ml of ice-cold buffer. The mixture was rapidly filtered through a GF/B glass filter. The radioactivity associated with the filter was measured by liquid scintillation counting.
(§3) Kd and Bmax values were determined from Scatchard plots [Ann. N.Y. Acad. Sci., 51, 660 (1949)]. Non-specific binding was calculated as the bound in the presence of an excess (2.5 μM) of unlabeled PGE2. In the experiment for competition of specific ^3H-PGE2 binding by the compounds of the present invention, 2.5 nM of ^3H-PGE2 and various concentrations of compounds of the present invention were added. The following buffer was used in all reactions.
(§4) Buffer: 10 mM potassium phosphate (pH 6.0), 1 mM EDTA, 10 mM MgCl2, 0.1 M NaCl
(§5) In the example compounds, all of values were shown the more polar compounds.
(§6) The dissociation constant (Ki) of each compound was calculated by the following equation.

In a further test the target is T2, mouse EP3α (Mus musculus, UniProt P30557).
T2 construct: expressed in transfected cells; host or cells: CHO cells (membrane fraction)
T2 sequence (P30557 1-365): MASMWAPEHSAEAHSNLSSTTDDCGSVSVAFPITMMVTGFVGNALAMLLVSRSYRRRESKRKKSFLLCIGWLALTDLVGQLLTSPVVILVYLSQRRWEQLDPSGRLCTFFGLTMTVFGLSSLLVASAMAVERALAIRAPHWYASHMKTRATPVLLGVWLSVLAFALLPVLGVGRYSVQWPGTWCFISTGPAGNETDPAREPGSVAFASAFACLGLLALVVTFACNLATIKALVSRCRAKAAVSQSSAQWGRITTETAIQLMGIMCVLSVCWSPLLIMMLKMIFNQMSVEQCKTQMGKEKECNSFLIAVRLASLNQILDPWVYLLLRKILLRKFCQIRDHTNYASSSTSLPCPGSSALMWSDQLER
Briefly: Binding assay using expression cell of prostanoide receptor subtype (EP3α). The procedure:
as §1, §2, §3, §4, §5, §6

The next test deals with T3, mouse EP4 (Mus musculus, UniProt P32240).
T3 construct: expressed in transfected cells; host or cells: CHO cells (membrane fraction)
The test is described as follows: Binding assay using expression cell of prostanoide receptor subtype (EP4). The protocol: as §2
(§7) Kd and Bmax values were determined from Scatchard plots [Ann. […] The following buffer was used in all reactions.
as §4, §6

A further test has as its target T4, mouse EP2 (Mus musculus, UniProt Q62053).
T4 construct: expressed in transfected cells; host or cells: CHO cells (membrane fraction)
Briefly: Binding assay using expression cell of prostanoide receptor subtype (EP2). The procedure:
as §2, §7, §4, §6

Structures are written as SMILES.

T4 sequence (Q62053 whole entry): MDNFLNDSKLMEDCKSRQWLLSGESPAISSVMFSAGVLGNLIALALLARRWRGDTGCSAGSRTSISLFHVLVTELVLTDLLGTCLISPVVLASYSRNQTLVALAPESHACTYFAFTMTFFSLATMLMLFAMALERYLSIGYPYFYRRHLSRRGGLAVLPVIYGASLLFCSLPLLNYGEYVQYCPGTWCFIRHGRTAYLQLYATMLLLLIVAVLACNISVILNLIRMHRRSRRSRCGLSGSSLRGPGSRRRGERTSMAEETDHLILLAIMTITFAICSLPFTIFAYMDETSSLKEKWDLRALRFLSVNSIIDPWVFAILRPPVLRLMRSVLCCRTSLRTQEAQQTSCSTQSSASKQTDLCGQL
T3 sequence (P32240 whole entry): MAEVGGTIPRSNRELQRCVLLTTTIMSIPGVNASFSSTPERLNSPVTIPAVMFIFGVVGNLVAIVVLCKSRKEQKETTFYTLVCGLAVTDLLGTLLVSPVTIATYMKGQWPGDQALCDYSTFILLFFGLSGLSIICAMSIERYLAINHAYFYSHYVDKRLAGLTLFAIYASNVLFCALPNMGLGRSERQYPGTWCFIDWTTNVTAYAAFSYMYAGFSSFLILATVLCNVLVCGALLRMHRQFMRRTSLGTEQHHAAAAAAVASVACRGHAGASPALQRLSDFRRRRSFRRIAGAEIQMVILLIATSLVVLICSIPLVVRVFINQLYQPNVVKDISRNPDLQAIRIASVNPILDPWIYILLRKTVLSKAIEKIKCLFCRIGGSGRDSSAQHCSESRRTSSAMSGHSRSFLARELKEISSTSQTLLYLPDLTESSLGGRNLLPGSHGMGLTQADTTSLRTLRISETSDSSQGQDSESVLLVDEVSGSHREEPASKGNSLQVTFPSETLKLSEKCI

Take `CCCC1(C(O)C/C=C/[C@H]2[C@H](OC)CC(=O)[C@@H]2C/C=C\CCCC(=O)O)CCC1` (stereo partly drawn) [compound 10]: the Ki (commonly the equilibrium dissociation constant of an inhibitor or competing ligand from its target) at mouse EP1 was > 10 µM; on mouse EP3α, > 10 µM; on mouse EP4, > 10 µM; on mouse EP2 it was 0.034 µM.

`O=C(O)CCC/C=C\C[C@@H]1[C@@H](/C=C/CC(O)C2(CC3CC3)CCC2)[C@H](O)C[C@H]1Cl` (stereo partly drawn) [Example 17(2), (5Z, 9β, 11α, 13E)-17, 17-propano-19, 20-methano-11, 16-dihydroxy-9-chloroprosta-5, 13-dienoic acid]: the Ki on mouse EP1 worked out at 1.1 µM; at mouse EP3α, 2.7 µM; on mouse EP4 it was 0.4 µM; on mouse EP2, 0.0009 µM.

Turning to `CCC1(C(O)C/C=C/[C@H]2[C@H](O)CC(=O)[C@@H]2C/C=C\CCCC(=O)O)CCC1` (stereo partly drawn) [Example 4(10), (5Z, 11α, 13E)-11,16-dihydroxy-9-oxo-17,17-propano-20-norprosta-5,13-dienoic acid], the Ki on mouse EP1 is > 10 µM; at mouse EP3α, > 10 µM; at mouse EP4, > 10 µM; at mouse EP2 it was 0.03 µM.

Regarding `C=CCC1(C(O)C/C=C/[C@@H]2[C@@H](C/C=C\CCCC(=O)OC)[C@H](Cl)C[C@H]2O)CCC1` (stereo partly drawn) [Example 16(1), (5Z, 9β, 11α, 13E)-17, 17-propano-11, 16-dihydroxy-9-chloroprosta-5, 13, 19-trienoic acid•methylester], the Ki is > 10 µM on mouse EP1, > 10 µM on mouse EP3α, > 10 µM on mouse EP4 and 0.096 µM at mouse EP2.

As to `CCCC1(C(O)C/C=C/[C@H]2[C@H](O)CC(=O)[C@@H]2C/C=C\CCCC(=O)O)CCC1` (stereo partly drawn) [compound 4], the inhibition constant Ki at mouse EP1 is > 10 µM; at mouse EP3α, > 10 µM; at mouse EP4 it was > 10 µM; on mouse EP2, 0.092 µM.

Turning to `C=C1C[C@@H](O)[C@H](/C=C/CC(O)C2(CCC)CCC2)[C@H]1C/C=C\CCCC(=O)O` (stereo partly drawn) [compound 12], the Ki at mouse EP1 is > 10 µM; at mouse EP3α it was > 10 µM; at mouse EP4, > 10 µM; on mouse EP2, 0.37 µM.

With `C=CCC1(C(O)C/C=C/[C@H]2[C@H](O)CC(=O)[C@@H]2C/C=C\CCCC(=O)O)CCC1` (stereo partly drawn) [Example 4(5), (5Z, 11α, 13E)-11,16-dihydroxy-9-oxo-17,17-propanoprosta-5, 13-19-trienoic acid], the Ki on mouse EP1 was > 10 µM; on mouse EP3α it was > 10 µM; on mouse EP4 it was > 10 µM; at mouse EP2, 0.032 µM.

As for `C=CC1(C(O)C/C=C/[C@H]2[C@H](O)CC(=O)[C@@H]2C/C=C\CCCC(=O)O)CCC1` (stereo partly drawn) [Example 6(5), (5Z, 11α, 13E)-17,17-propano-11,16-dihydroxy-9-oxo-20-norprosta-5,13,18-trienoic acid], the Ki was > 10 µM on mouse EP1, > 10 µM at mouse EP3α, > 10 µM at mouse EP4 and 0.076 µM at mouse EP2.

For the molecule `C=CCCC1(C(O)C/C=C/[C@H]2[C@H](O)CC(=O)[C@@H]2C/C=C\CCCC(=O)O)CCC1` (stereo partly drawn) [Example 6(1), (5Z, 11α, 13E)-17,17-propano-20,20-methylene-11,16-dihydroxy-9-oxoprosta-5,13-dienoic acid], the Ki was > 10 µM at mouse EP1, > 10 µM on mouse EP3α, > 10 µM on mouse EP4 and 0.036 µM on mouse EP2.
